Test [1] concerns the target T1, 5-HT1A serotonin receptor (Rattus norvegicus, UniProt P19327).
T1 construct: following the procedure of Hall et al., J. Neurochem; 44 1685 (1985); from tissue
T1 sequence (P19327 1-422): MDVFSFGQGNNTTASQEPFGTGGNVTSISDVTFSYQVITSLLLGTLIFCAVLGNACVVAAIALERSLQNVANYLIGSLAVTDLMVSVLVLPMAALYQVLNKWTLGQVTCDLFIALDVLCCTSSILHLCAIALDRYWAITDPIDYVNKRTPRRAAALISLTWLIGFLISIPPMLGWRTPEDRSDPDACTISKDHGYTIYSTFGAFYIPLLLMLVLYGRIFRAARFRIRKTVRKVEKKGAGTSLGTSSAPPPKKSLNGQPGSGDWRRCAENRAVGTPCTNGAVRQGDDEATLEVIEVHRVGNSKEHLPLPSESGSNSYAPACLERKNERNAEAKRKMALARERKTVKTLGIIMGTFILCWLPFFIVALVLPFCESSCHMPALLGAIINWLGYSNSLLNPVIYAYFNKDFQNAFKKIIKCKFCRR
Kind of test: 5-HT1A receptor binding: displacement of [3H] 8-OHDPAT. The settings on record: procedure of Hall et al. The protocol: High affinity for the serotonin 5-HT1A receptor for the compounds of this invention was established by testing them in accordance with the standard pharmacological test procedure in which the compound's ability to displace [^3 H] 8-OHDPAT (dipropylaminotetralin) from the 5-HT1A serotonin receptor was determined following the procedure of Hall et al., J. Neurochem. 44 1685 (1985). […] The anxiolytic activity of buspirone is believed to be, at least partially, due to its 5-HT1A receptor affinity [VanderMaelen et al., Eur. J. Pharmacol. 1986, 129 (123-130)].
In general terms: Loss of bound radioactivity is the signal in a displacement assay; it reports binding, not function.

Test [2] addresses T1, 5-HT1A serotonin receptor. Conditions: buspirone, literature (VanderMaelen et al. 1986); cited from earlier work.

As usually defined, the IC50 is the concentration that gives 50% inhibition. A higher IC50 goes with lower potency. In test [1], `CN1c2ccccc2[C@@H]2CCN(CCC(C(=O)N3CCCCCC3)c3ccccc3)C[C@H]21` (relative stereo) [Example 3, 1-Azepan-1-yl-4-((trans)-9-methyl-1,3,4,4a,9,9a-hexahydro-2H-pyrido[3,4-b]indol-2-yl)-2-phenyl-butan-1-one] showed an IC50 of 37.1 nM.
On the same count and under the same terms, to `O=C(C(CCN1CC[C@H]2c3ccccc3N[C@H]2C1)c1ccccc1)N1CCCCCC1` (relative stereo) [Example 4, 1-Azepan-1-yl-4-((cis)-1,3,4,4a,9,9a-hexahydro-2H-pyrido[3,4-b]indol-2-yl)-2-phenyl-butan-1-one] belongs 67.4 nM; to `O=C(C(CCN1CCc2c([nH]c3ccccc23)C1)c1ccccc1)N1CCCCCC1` (centres unmarked) [Example 1, 1-Azepan-1-yl-2-phenyl-4-(1,3,4,9-tetrahydro-2H-pyrido[3.4-b]indol-2-yl]-butan-1-one], 30.9 nM.
On the same count and under the same terms, to `Cn1c2c(c3ccccc31)CCN(CCC(C(=O)N1CCCCCC1)c1ccccc1)C2` (centres unmarked) [Example 2, 1-Azepan-1-yl-4-(9-methyl-1,3,4,9-tetrahydro-2H-pyrido[3.4-b]-indol-2-yl]-2-phenyl-butan-1-one] belongs 33.3 nM.
For `O=C1CC2(CCCC2)CC(=O)N1CCCCN1CCN(c2ncccn2)CC1` [buspirone], the “affinity for the 5-HT1A serotonin receptor (in words)” value in test [2] is recorded as “potent affinity”.

The values above are taken from patent US5466688A, “Pyrido[3,4-B]indole derivatives as serotonergic agents” (American Home Products Corporation, priority 1994, dated 1995).
